In ChEMBL document CHEMBL1121427, “Decomposition of pharmacological activity indices into mutually independent components using principal component analysis” (J Med Chem, 1980):

Tests used:
[1] = -Log C was determined by performing the electroshock minimum test; format: ADME; parameters: unit not given here
[2] = -Log C was determined by performing the foot shock test; format: ADME; parameters: unit not given here
[3] = -Log C was determined by performing the incl screen test; format: ADME; parameters: unit not given here
[4] = -Log C was determined by performing the maximum electroshock test; format: ADME; parameters: unit not given here
[5] = -Log C was determined by performing the pentylenetetrazole test; format: ADME; parameters: unit not given here
[6] = tested on: Bacillus subtilis; test: Inhibitory activity against Bacillus subtilis; format: functional; parameters: unit not given here
[7] = tested on: Staphylococcus aureus; test: The compound was evaluated for activity against strain Micrococcus aureus; format: functional; parameters: unit not given here
[8] = tested on: Streptococcus pyogenes; test: The compound was evaluated for activity against strain Streptococcus hemolyticus; format: functional; parameters: unit not given here
[9] = tested on: Enterococcus faecalis; test: The compound was evaluated for activity against strain Streptococcus faecalis; format: functional; parameters: unit not given here
[10] = tested on: Aspergillus niger; test: The compound was evaluated for activity against Aspergillus niger; format: functional
[11] = tested on: Aspergillus oryzae; test: The compound was evaluated for activity against Aspergillus oryzae; format: functional; parameters: unit not given here
[12] = tested on: Albifimbria verrucaria; test: The compound was evaluated for activity against Myrothecium verrucaria; format: functional; parameters: unit not given here
[13] = tested on: Trichoderma viride; test: The compound was evaluated for activity against Trichoderma viride; format: functional; parameters: unit not given here
[14] = tested on: Trichophyton benhamiae; test: The compound was evaluated for activity against Trichophyton mentagrophytes; format: functional, Arthroderma benhamiae

Which “-Log C” value [1] does the source give for CN(C)c1ccc2c(c1)C(c1ccccc1)=NCC(=O)N2C here?
The value was 0.06.

What about the “-Log C” value [2] of the same compound?
The value was 0.87.

And the “-Log C” value [3]?
The value was 0.29.

What about the “-Log C” value [4] of the same compound?
Its value is 0.5.

What about the “-Log C” value [5] of the same compound?
Its value is 1.7.

Which “-Log C” value [6] does the source give for COC1/C=C/OC2(C)Oc3c(C)c(O)c4c(O)c(cc(OCC(=O)NC(C)(C)C)c4c3C2=O)NC(=O)/C(C)=C\C=C\C(C)C(O)C(C)C(O)C(C)C(OC(C)=O)C1C (stereo not given) here?
Its value is 5.42.

What about the “-Log C” value [7] of the same compound?
Its value is 6.73.

And the “-Log C” value [8]?
The value was 6.43.

And the “-Log C” value [9]?
The value was 5.83.

Which “-Log C” value [10] does the source give for O=[N+]([O-])c1cc(I)c2cccnc2c1O here?
The value was 0.7 mM l-1.

And the “-Log C” value [11]?
Its value is 0.57.

What about the “-Log C” value [12] of the same compound?
The value was 0.6.

And the “-Log C” value [13]?
The value was 0.89.

What about the “-Log C” value [14] of the same compound?
The value was 1.89 mM l-1.

For O=[N+]([O-])c1cc(F)c2cccnc2c1O, which “-Log C” value [10] is on record?
Its value is 1.06 mM l-1.

And the “-Log C” value [11]?
Its value is 0.85.

What about the “-Log C” value [12] of the same compound?
The value was 1.02.

And the “-Log C” value [13]?
The value was 1.06.

And the “-Log C” value [14]?
Its value is 1.72 mM l-1.

What does the source list for Oc1c(Br)cc(Cl)c2cccnc12?
-Log C [10]: 1.92 mM l-1; -Log C [14]: 2.11 mM l-1

With COC1/C=C/OC2(C)Oc3c(C)c(O)c4c(O)c(cc(OCC(=O)N(C)CCC#N)c4c3C2=O)NC(=O)/C(C)=C\C=C\C(C)C(O)C(C)C(O)C(C)C(OC(C)=O)C1C (stereo not given) as the compound, how does the “-Log C” value [6] read?
The value was 5.74.

And the “-Log C” value [7]?
The value was 6.97.

What about the “-Log C” value [8] of the same compound?
Its value is 6.97.

What about the “-Log C” value [9] of the same compound?
Its value is 6.05.

With COC1/C=C/OC2(C)Oc3c(C)c(O)c4c(O)c(cc(OCC(=O)N5C(C)COCC5C)c4c3C2=O)NC(=O)/C(C)=C\C=C\C(C)C(O)C(C)C(O)C(C)C(OC(C)=O)C1C (stereo not given) as the compound, how does the “-Log C” value [6] read?
Its value is 6.15.

And the “-Log C” value [7]?
The value was 7.93.

And the “-Log C” value [8]?
The value was 7.76.

And the “-Log C” value [9]?
The value was 6.98.

Which results are given for COC1/C=C/OC2(C)Oc3c(C)c(O)c4c(O)c(cc(OCC(=O)N(C)C5CCCC5)c4c3C2=O)NC(=O)/C(C)=C\C=C\C(C)C(O)C(C)C(O)C(C)C(OC(C)=O)C1C (stereo not given)?
-Log C [6]: 6.36; -Log C [7]: 8.14; -Log C [8]: 8.22; -Log C [9]: 7.22

What does the source list for O=[N+]([O-])c1cc(Cl)c(O)c2ncccc12?
-Log C [10]: 0.89 mM l-1; -Log C [14]: 2.35 mM l-1

With Oc1c(F)cc(F)c2cccnc12 as the compound, how does the “-Log C” value [10] read?
The value was 1.36 mM l-1.

What about the “-Log C” value [14] of the same compound?
The value was 1.66 mM l-1.

Which results are given for CC(C)(C)N1C(=O)CN=C(c2ccccc2)c2cc(Cl)ccc21?
-Log C [1]: 0.39; -Log C [2]: 0.51; -Log C [3]: 0.19; -Log C [4]: 0.26; -Log C [5]: 0.39

For COC1/C=C/OC2(C)Oc3c(C)c(O)c4c(O)c(cc(OCC(=O)N5CCOCC5C)c4c3C2=O)NC(=O)/C(C)=C\C=C\C(C)C(O)C(C)C(O)C(C)C(OC(C)=O)C1C (stereo not given), which “-Log C” value [6] is on record?
The value was 6.67.

What about the “-Log C” value [7] of the same compound?
Its value is 7.92.

What about the “-Log C” value [8] of the same compound?
Its value is 8.36.

What about the “-Log C” value [9] of the same compound?
Its value is 6.22.

Which “-Log C” value [10] does the source give for O=[N+]([O-])c1cc(Br)c(O)c2ncccc12 here?
Its value is 1.01 mM l-1.

And the “-Log C” value [11]?
Its value is 0.66.

And the “-Log C” value [12]?
Its value is 1.72.

What about the “-Log C” value [13] of the same compound?
The value was 1.32.

And the “-Log C” value [14]?
Its value is 2.43 mM l-1.

Which results are given for COC1/C=C/OC2(C)Oc3c(C)c(O)c4c(O)c(cc(OCC(=O)N(Cc5ccccc5)Cc5ccccc5)c4c3C2=O)NC(=O)/C(C)=C\C=C\C(C)C(O)C(C)C(O)C(C)C(OC(C)=O)C1C (stereo not given)?
-Log C [6]: 6.89; -Log C [7]: 8.49; -Log C [8]: 7.89; -Log C [9]: 7.49

Which results are given for Oc1c(Cl)ccc2cccnc12?
-Log C [10]: 1.77 mM l-1; -Log C [14]: 2.25 mM l-1

With Oc1c(Br)ccc2cccnc12 as the compound, how does the “-Log C” value [10] read?
Its value is 1.89 mM l-1.

What about the “-Log C” value [11] of the same compound?
Its value is 1.89.

What about the “-Log C” value [12] of the same compound?
The value was 2.35.

What about the “-Log C” value [13] of the same compound?
Its value is 2.35.

What about the “-Log C” value [14] of the same compound?
The value was 2.35 mM l-1.

With Oc1c(Cl)cc(F)c2cccnc12 as the compound, how does the “-Log C” value [10] read?
Its value is 1.82 mM l-1.

And the “-Log C” value [11]?
The value was 1.7.

And the “-Log C” value [12]?
The value was 2.29.

What about the “-Log C” value [13] of the same compound?
Its value is 2.29.

What about the “-Log C” value [14] of the same compound?
Its value is 2.3 mM l-1.

With Oc1c(F)cc(I)c2cccnc12 as the compound, how does the “-Log C” value [10] read?
The value was 2 mM l-1.

What about the “-Log C” value [11] of the same compound?
The value was 1.46.

What about the “-Log C” value [12] of the same compound?
Its value is 2.46.

What about the “-Log C” value [13] of the same compound?
Its value is 2.

What about the “-Log C” value [14] of the same compound?
Its value is 2.46 mM l-1.

Which results are given for Nc1cc(Br)c2cccnc2c1O?
-Log C [10]: 0.57 mM l-1; -Log C [11]: 0.68; -Log C [12]: 0.96; -Log C [13]: 0.92; -Log C [14]: 1.6 mM l-1

For Oc1c(F)cc(Cl)c2cccnc12, which “-Log C” value [10] is on record?
The value was 2 mM l-1.

What about the “-Log C” value [11] of the same compound?
Its value is 1.7.

What about the “-Log C” value [12] of the same compound?
The value was 2.29.

And the “-Log C” value [13]?
The value was 2.29.

And the “-Log C” value [14]?
Its value is 2.3 mM l-1.

Which results are given for COC1/C=C/OC2(C)Oc3c(C)c(O)c4c(O)c(cc(OCC(=O)N5CCCCC5C)c4c3C2=O)NC(=O)/C(C)=C\C=C\C(C)C(O)C(C)C(O)C(C)C(OC(C)=O)C1C (stereo not given)?
-Log C [6]: 6.67; -Log C [7]: 8.22; -Log C [8]: 7.92; -Log C [9]: 7.45

With O=[N+]([O-])c1cc(Br)c2cccnc2c1O as the compound, how does the “-Log C” value [10] read?
The value was 0.62 mM l-1.

And the “-Log C” value [11]?
The value was 0.66.

And the “-Log C” value [12]?
The value was 1.13.

What about the “-Log C” value [13] of the same compound?
Its value is 1.13.

What about the “-Log C” value [14] of the same compound?
Its value is 2.43 mM l-1.

For CCCN(CC)C(=O)COc1cc2c(O)c3c(O)c(C)c4c(c13)C(=O)C(C)(O/C=C/C(OC)C(C)C(OC(C)=O)C(C)C(O)C(C)C(O)C(C)/C=C/C=C(/C)C(=O)N2)O4 (stereo not given), which “-Log C” value [6] is on record?
Its value is 6.35.

What about the “-Log C” value [7] of the same compound?
Its value is 8.01.

And the “-Log C” value [8]?
Its value is 8.22.

What about the “-Log C” value [9] of the same compound?
Its value is 7.22.
